The record followed here is patent publication US9416126B2, “Compounds inhibiting leucine-rich repeat kinase enzyme activity” (Merck Sharp & Dohme Corp., priority 2013, dated 2016).

For the first assay, the target named is LRRK2(G2019S mutation, GST-LRRK2(amino acids 970-2527)) (Homo sapiens (Human), UniProt Q5S007, G2019S). The experiment in a line: LRRK2 Km ATP LanthaScreen Assay. It is filed as biochemical. To be noted: Examples N1-N25. The method, then: Unless otherwise noted, all LRRK2 IC50 data presented in tables refers to the LRRK2 Km ATP LanthaScreen™ Assay that is described in the Biological Assay section.
Sequence of LRRK2(G2019S mutation, GST-LRRK2(amino acids 970-2527)) (Q5S007 970-2527 G2019S): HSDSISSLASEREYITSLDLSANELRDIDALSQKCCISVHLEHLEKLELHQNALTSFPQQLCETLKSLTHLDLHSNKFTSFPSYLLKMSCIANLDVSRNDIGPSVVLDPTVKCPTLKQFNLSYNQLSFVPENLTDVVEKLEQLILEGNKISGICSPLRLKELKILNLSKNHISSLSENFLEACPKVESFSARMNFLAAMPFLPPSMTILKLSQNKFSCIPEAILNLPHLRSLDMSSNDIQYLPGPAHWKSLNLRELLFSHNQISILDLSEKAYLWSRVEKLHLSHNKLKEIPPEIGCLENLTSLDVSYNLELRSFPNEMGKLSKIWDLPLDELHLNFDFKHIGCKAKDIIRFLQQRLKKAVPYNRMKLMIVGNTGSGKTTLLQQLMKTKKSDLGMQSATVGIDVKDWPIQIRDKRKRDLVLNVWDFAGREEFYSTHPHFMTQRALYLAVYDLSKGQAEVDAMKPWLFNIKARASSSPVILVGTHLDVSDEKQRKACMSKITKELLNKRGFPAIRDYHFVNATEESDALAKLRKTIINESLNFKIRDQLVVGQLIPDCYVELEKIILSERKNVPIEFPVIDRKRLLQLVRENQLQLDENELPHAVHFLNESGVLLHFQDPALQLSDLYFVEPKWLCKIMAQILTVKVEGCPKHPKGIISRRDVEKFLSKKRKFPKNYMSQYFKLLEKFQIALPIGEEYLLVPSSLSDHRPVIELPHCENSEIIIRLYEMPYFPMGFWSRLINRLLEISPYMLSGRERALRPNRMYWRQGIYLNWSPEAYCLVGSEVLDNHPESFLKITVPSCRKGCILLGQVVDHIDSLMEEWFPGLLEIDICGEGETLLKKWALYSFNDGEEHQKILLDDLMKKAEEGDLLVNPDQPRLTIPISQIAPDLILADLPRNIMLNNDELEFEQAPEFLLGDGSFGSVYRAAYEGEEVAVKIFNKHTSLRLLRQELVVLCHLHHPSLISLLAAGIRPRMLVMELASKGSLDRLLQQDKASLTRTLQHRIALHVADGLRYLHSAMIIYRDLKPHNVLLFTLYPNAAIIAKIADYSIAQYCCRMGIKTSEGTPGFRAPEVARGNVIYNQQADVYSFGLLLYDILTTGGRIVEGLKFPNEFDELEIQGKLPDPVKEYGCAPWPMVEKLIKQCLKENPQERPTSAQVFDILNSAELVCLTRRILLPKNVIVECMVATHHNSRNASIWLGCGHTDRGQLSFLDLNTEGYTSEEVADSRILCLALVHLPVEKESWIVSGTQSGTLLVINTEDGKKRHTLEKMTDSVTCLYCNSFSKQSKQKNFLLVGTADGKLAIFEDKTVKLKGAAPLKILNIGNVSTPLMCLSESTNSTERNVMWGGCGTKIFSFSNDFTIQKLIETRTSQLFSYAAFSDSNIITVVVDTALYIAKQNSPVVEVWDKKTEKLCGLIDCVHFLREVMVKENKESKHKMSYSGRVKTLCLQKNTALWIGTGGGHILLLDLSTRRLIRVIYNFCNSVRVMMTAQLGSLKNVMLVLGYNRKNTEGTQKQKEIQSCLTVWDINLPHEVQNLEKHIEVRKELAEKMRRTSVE
The data presented for the 5 mM and Km ATP LanthaScreen™ Assay represents mean IC50 values based on several test results and may have reasonable. deviations depending on the specific conditions and reagents used. Reagents for the LRRK2 5 mM and Km ATP LanthaScreen™ Assay were purchased from Life Technologies Corporation.
LRRK2 Km ATP LanthaScreen™ Assay
a) 400 nl of a 1:2.15 serial dilution of test compound(98 μM top assay concentration) is spotted via Labcyte Echo to certain wells in a 384 well black, untreated plate. Control wells contain 400 nl of either DMSO or 400 nl of a known inhibitor in DMSO.
b) 10 μl of a 2.5 nM LRRK2(G2019S mutation, GST-LRRK2(amino acids 970-2527)) enzyme solution in 1× assay buffer(50 mM Tris pH 8.5, 10 mM MgCl2, 0.01% Brij-35, 1 mM EGTA, 2 mM DTT, 0.05 mM NaVO4) is added to all wells.
c) A 30 minute room temperature incubation is followed by addition of 10 μl of 800 nM fluorescein labeled LRRKtide peptide substrate and 184 μM ATP solution in 1× assay buffer to all wells.
d) After a 60 minute room temperature incubation, 20 μl of TR-FRET Dilution Buffer(Invitrogen PV3756B) containing 4 nM Tb-labeled anti-phospho LRRKtide antibody and 20 mM EDTA is added to all wells.
e) Plates are incubated at room temperature for 1 hour and read on an Envision™ multi-mode plate reader with LanthaScreen™ settings. Results are analysed using Assay Data Analyzer.
(In general: In TR-FRET formats the signal depends on donor and acceptor labels being close together.)
With `CC(C)Oc1cc2c(-c3cc(N4CCN(C5CCS(=O)(=O)C5)CC4)ncn3)n[nH]c2cc1F` (stereo not shown) [Example N4], the IC50 – broadly, the concentration that gives 50% inhibition – was found to be 2.5 nM. Same read-out and setting: the value for `CC(C)Oc1cc2c(-c3cc(N4CCC(n5cccn5)C4)ncn3)n[nH]c2cc1F` (stereo not shown) [Example N13] was 6.1 nM; that for `CC(C)Oc1cc2c(-c3cc(N4CCc5oncc5C4)ncn3)n[nH]c2cc1F` [Example N10] was 9.8 nM; that for `CC(C)Oc1cc2c(-c3cc(N4CCS(=O)(=O)CC4)ncn3)n[nH]c2cc1F` [Example N19] was 24 nM.

The assay is the same for the next values; noted with them: Examples O1-O23.
`COCC1CN(c2cc(-c3n[nH]c4ccc(O[C@@H](C)COC)cc34)ncn2)CCO1` (stereo partly shown) [Example O13]: inhibition was half-maximal at 3.6 nM (IC50). `COC[C@H](C)Oc1ccc2[nH]nc(-c3cc(N4CC[C@@H](CO)C4)ncn3)c2c1` [Example O7] had an IC50 of 3.6 nM.

In turn, `COC[C@H](C)Oc1ccc2[nH]nc(-c3cc(N4CCN(C5CC5)CC4)ncn3)c2c1` [Example O11] had an IC50 of 4.1 nM. Still for that read-out and setting: next, `COC[C@H](C)Oc1ccc2[nH]nc(-c3cc(N4CCC(F)(F)C4)ncn3)c2c1` [Example O8]: 12.6 nM.

Staying with this assay, now noted: Examples P1-P18.
`Cc1nocc1-c1ccc2[nH]nc(-c3cc(N4CCOCC4)ncn3)c2c1` [Example P15] came in with an IC50 of 59 nM. Compound `c1nc(-c2n[nH]c3ccc(-c4ccc5nncn5c4)cc23)cc(N2CCOCC2)n1` [Example P12] gave a 50% inhibitory concentration (IC50) of 56.1 nM. `CCN(CC)C(=O)c1ccc(-c2ccc3[nH]nc(-c4cc(N5CCOCC5)ncn4)c3c2)cc1` [Example P8] had an IC50 of 608 nM.

The same assay, now with this note: Examples Q1-Q20.
`COc1ccc(-c2ccc3[nH]nc(-c4cc(N5C[C@@H](C)O[C@@H](C)C5)ncn4)c3c2)cn1` [Example Q9] had an IC50 of 41.1 nM. Same read-out and setting: next, `COc1ncccc1-c1ccc2[nH]nc(-c3cc(N4C[C@@H](C)O[C@@H](C)C4)ncn3)c2c1` [Example Q2]: 158 nM; `Cc1ncc(-c2ccc3[nH]nc(-c4cc(N5C[C@@H](C)O[C@@H](C)C5)ncn4)c3c2)nc1C` [Example Q12]: 17.4 nM. In turn, `C[C@@H]1CN(c2cc(-c3n[nH]c4ccc(-c5ccncc5)cc34)ncn2)C[C@H](C)O1` [Example Q6] registered an IC50 of 49.5 nM. The compound `Cc1nocc1-c1ccc2[nH]nc(-c3cc(N4C[C@@H](C)O[C@@H](C)C4)ncn3)c2c1` [Example Q5] showed an IC50 of 40 nM.

For the compound `COc1cnc(-c2ccc3[nH]nc(-c4cc(N5C[C@@H](C)O[C@@H](C)C5)ncn4)c3c2)cn1` [Example Q7], the IC50 was determined as 63.4 nM. `C[C@@H]1CN(c2cc(-c3n[nH]c4ccc(-c5ccc(C#N)cc5)cc34)ncn2)C[C@H](C)O1` [Example Q18]: the IC50 was 177 nM. In turn, `C[C@@H]1CN(c2cc(-c3n[nH]c4ccc(-c5ccc(C(=O)NCCO)cc5)cc34)ncn2)C[C@H](C)O1` [Example Q17] had an IC50 of 77 nM.

The same assay, now with this note: Km ATP (184 μM ATP solution), G2019S LRRK2, mean IC50.
As for `COCCOc1ccc2[nH]nc(-c3cc(N4CCN(C(C)=O)CC4)ncn3)c2c1` [Example G13], the midpoint of inhibition, the IC50, lay at 128 nM.

In turn, `Cn1cc(-c2ccc3[nH]nc(-c4cc(N5CC6CCC(C5)O6)ncn4)c3c2)cn1` [Example A10] showed a half-maximal inhibitory concentration (IC50) of 5.18 nM.

Compound `COc1ccc2[nH]nc(-c3cc(N4CCN(C(C)=O)CC4)ncn3)c2c1` [Example E5] yielded a half-maximal inhibitory concentration (IC50) of 74.5 nM. Same read-out and setting: the value for `CCC(=O)N1CCN(c2cc(-c3n[nH]c4cc(F)c(OC(C)C)cc34)ncn2)CC1` [Example D64] was 4.32 nM; that for `CCCN1CCN(c2cc(-c3n[nH]c4ccc(OC(C)C)cc34)ncn2)CC1=O` [Example D34] was 4.39 nM; that for `CC(C)Oc1ccc2[nH]nc(-c3cc(N4C=CSCC4)ncn3)c2c1` [Example D27] was 6.08 nM. Compound `CCCN1CCN(c2cc(-c3n[nH]c4ccc(OC(C)C)cc34)ncn2)CC1` [Example D14] gave an IC50 of 8.14 nM. The same measure, in the same setting: next, `COCCOc1ccc2[nH]nc(-c3cc(N4CC5CCC(C4)O5)ncn3)c2c1` [Example G12]: 154 nM; `CCOc1ccc2[nH]nc(-c3cc(N4CCN(C)C(=O)C4)ncn3)c2c1` [Example F7]: 37.1 nM; `CC(C)Oc1ccc2[nH]nc(-c3cc(N4CCCC4)ncn3)c2c1` [Example J5]: 13.9 nM. Consider `CO[C@@H]1CCN(c2cc(-c3n[nH]c4ccc(OC(C)C)cc34)ncn2)C1` [Example D30], for which half-maximal inhibition (IC50) was put at 7.47 nM.

Consider `CN(C)[C@@H]1CN(c2cc(-c3n[nH]c4cc(F)c(-c5cnn(C)c5)cc34)ncn2)C[C@H]1O` [Example L21], for which the midpoint of inhibition, the IC50, lay at 67.1 nM. Still for that read-out and setting: the value for `CN1CCN(c2cc(-c3n[nH]c4ccc(-c5cnn(C)c5)cc34)ncn2)CC1` [Example A6] was 2.85 nM; that for `Cn1cc(-c2ccc3[nH]nc(-c4cc(N5CCN(C6CC6)CC5)ncn4)c3c2)cn1` [Example A2] was 2.62 nM; that for `COc1ccc2[nH]nc(-c3cc(N4CCN(C)CC4)ncn3)c2c1` [Example E7] was 28.2 nM.

In the case of `CCOc1ccc2[nH]nc(-c3cc(N4CCNC(=O)C4)ncn3)c2c1` [Example F6], half-maximal inhibition (IC50) required 63.9 nM. Same read-out and setting: next, `CC(C)Oc1cc2c(-c3cc(N4CCOCC4)ncn3)n[nH]c2cc1F` [Example D26]: 2.39 nM; `C[C@@H]1CN(c2cc(-c3n[nH]c4ccc(-c5cnn(C)c5)cc34)ncn2)CCO1` [Example M9]: 1.9 nM; `CC(C)Oc1cc2c(-c3cc(N4CCN(C)[C@H](C)C4)ncn3)n[nH]c2cc1F` [Example D51]: 1.3 nM. As for `CS(=O)(=O)N1CCN(c2cc(-c3n[nH]c4ccc(-c5cnccn5)cc34)ncn2)CC1` [Example I2], the IC50 was determined as 19.2 nM.

In the case of `COC[C@H](C)Oc1ccc2[nH]nc(-c3cc(N4CCO[C@H](C)C4)ncn3)c2c1` [Example H17], the IC50 was 2.79 nM. The same measure, in the same setting: next, `CC(C)Oc1ccc2[nH]nc(-c3cc(N4CCN(C)C(=O)C4)ncn3)c2c1` [Example D9]: 11.2 nM; `COc1ccc2[nH]nc(-c3cc(N4C[C@H](F)[C@@H](F)C4)ncn3)c2c1` [Example E2]: 68.6 nM; `Cn1cc(-c2ccc3[nH]nc(-c4cc(N5CCC(F)(CO)CC5)ncn4)c3c2)cn1` [Example M24]: 2.9 nM.

On to `CC(C)Oc1cc2c(-c3cc(N4CC[C@H](N)C4)ncn3)n[nH]c2cc1F` [Example D59], for which inhibition was half-maximal at 10.4 nM (IC50). Same read-out and setting: next, `CC(C)Oc1ccc2[nH]nc(-c3cc(N4CCC(CF)C4)ncn3)c2c1` (stereo not shown) [Example K15]: 6.9 nM; `CC(C)Oc1ccc2[nH]nc(-c3cc(N4CCN(C5CC5)CC4)ncn3)c2c1` [Example D10]: 8.28 nM. Same read-out and setting: the value for `CC(C)Oc1ccc2[nH]nc(-c3cc(N4CCN(c5nncs5)CC4)ncn3)c2c1` [Example K21] was 17 nM.

In the case of `CC(C)Oc1ccc2[nH]nc(-c3cc(N4CCC5(CCCO5)CC4)ncn3)c2c1` [Example D49], the half-inhibitory concentration (IC50) was found to be 4.13 nM. Consider `CC(C)Oc1ccc2[nH]nc(-c3cc(N4CCNCC4)ncn3)c2c1` [Example D18], for which 12.4 nM corresponded to half-maximal inhibition (IC50). The same measure, in the same setting: next, `Cn1cc(-c2ccc3[nH]nc(-c4cc(N5CCOC(C)(C)C5)ncn4)c3c2)cn1` [Example M20]: 8.9 nM. Take `CC(C)Oc1ccc2[nH]nc(-c3cc(N4CCO[C@@H](C)C4)ncn3)c2c1` [Example D20]: half-maximal inhibition (IC50) was put at 21.4 nM.

For the compound `Cn1cc(-c2ccc3[nH]nc(-c4cc(N5CCC(F)(F)CC5)ncn4)c3c2)cn1` [Example M21], half-maximal inhibition (IC50) required 4.6 nM. In turn, `CC(O)C1CCN(c2cc(-c3n[nH]c4ccc(-c5cnn(C)c5)cc34)ncn2)C1` (stereo not shown) [Example M6] yielded an IC50 of 2.3 nM. `CC(C)Oc1ccc2[nH]nc(-c3cc(N4CC[S+]([O-])CC4)ncn3)c2c1` [Example D4] registered a 50% inhibitory concentration (IC50) of 11.5 nM. In the case of `CC(C)Oc1ccc2[nH]nc(-c3cc(N4CCC(F)(F)CC4)ncn3)c2c1` [Example D5], half-maximal inhibition (IC50) required 14.8 nM.

In the case of `COCCN1CCN(c2cc(-c3n[nH]c4cc(F)c(OC(C)C)cc34)ncn2)CC1=O` [Example D71], the IC50 stood at 1.63 nM. On the same count and under the same terms, the value for `CC(C)Oc1cc2c(-c3cc(N4C[C@@H](C)N(C)[C@@H](C)C4)ncn3)n[nH]c2cc1F` [Example D72] was 1.33 nM. Still for that read-out and setting: next, `CC(C)Oc1ccc2[nH]nc(-c3cc(N4CCOC(C)(C)C4)ncn3)c2c1` [Example D3]: 6.37 nM. Same read-out and setting: next, `COc1ccc2[nH]nc(-c3cc(N4CCO[C@H](C)C4)ncn3)c2c1` [Example E12]: 28.5 nM.

Staying with this assay, now noted: Table U.
Take `C1=C(c2ccc3[nH]nc(-c4cc(N5CCOCC5)ncn4)c3c2)CCNC1` [Example U12]: it took 71.6 nM to reach half-maximal inhibition (IC50).

`FC1(F)CCN(c2cc(-c3n[nH]c4ccc(-c5cc[nH]n5)cc34)ncn2)CC1` [Example U6] had an IC50 of 2.16 nM. Still for that read-out and setting: the value for `Cc1n[nH]c(C)c1-c1ccc2[nH]nc(-c3cc(N4CCOCC4)ncn3)c2c1` [Example U19] was 2.58 nM.

For the compound `FC1(F)CCN(c2cc(-c3n[nH]c4ccc(-c5ccoc5)cc34)ncn2)CC1` [Example U1], the 50% inhibitory concentration (IC50) turned out to be 86.2 nM. The compound `C[C@@H]1CN(c2cc(-c3n[nH]c4ccc(-c5ccn[nH]5)cc34)ncn2)C[C@H](C)O1` [Example U28] showed a half-maximal inhibitory concentration (IC50) of 1.44 nM.
